From ChEMBL document CHEMBL1141323, “Iriomoteolides-1b and -1c, 20-membered macrolides from a marine dinoflagellate Amphidinium species” (J Nat Prod, 2007) come the findings set out here.

Broadly, the IC50 is the point on the concentration scale where inhibition reaches its midpoint. Low values mean greater potency, high ones weaker potency.

Converted amounts (≈) assume the structure as drawn.

Experiment [1] is described as follows: Cytotoxicity against human DG75 cells. The note with it: DG-75. The class given is cell-based.
Experiment [2] relates to Raji (Homo sapiens). Kind of experiment: Cytotoxicity against EBV-infected Raji cells. The following applies: human gammaherpesvirus 4, Raji.

Take `C/C1=C/C(=O)[C@](C)(O)/C=C/C[C@H](C)[C@@H](C[C@H](C)[C@H](C)O)OC(=O)/C=C(/C)[C@@H](C)[C@@H](O)/C=C/C[C@H](O)C1`: the midpoint of inhibition in experiment [1], the IC50, lay at 900 ng/mL (≈ 1780 nM).
Consider `C=C1C[C@@H]2C/C=C/[C@H](O)[C@H](C)/C(C)=C\C(=O)O[C@H](CCC(C)C(C)O)[C@@H](C)C/C=C/[C@@](C)(O)[C@](O)(C1)O2` (stereo not given in full), for which the IC50 in experiment [2] came to 4 ng/mL (≈ 7.68 nM); in experiment [1], 2 ng/mL (≈ 3.84 nM).
Turning to `C=C1C[C@@H]2C/C=C/[C@H](O)[C@H](C)/C(C)=C\C(=O)O[C@H](C[C@H](C)[C@H](C)O)[C@@H](C)C/C=C/[C@@](C)(O)[C@](O)(C1)O2`, the values for the concentration for half-maximal inhibition (IC50) in experiment [2] and in experiment [1] were 4 ng/mL (≈ 7.89 nM) and 2 ng/mL (≈ 3.95 nM), respectively.
